Reference: patent US11464770B2, “Anticancer pharmaceutical composition” (NATIONAL CANCER CENTER, priority 2016, dated 2022)
Read-outs that look alike come from different tables or passages of the source.

Key:
[1] = test system: lung cancer cell lines (e.g. NCI-H23, NCI-H1229); assay: Cell based assay, cell viability (CellTiter-Glo), lung cancer cell lines; conditions: Homo sapiens, 72 hours treatment, CellTiter-Glo
In short: (§1)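 Viability measured by ATP luminescence following 72 h treatment over a 0–2 μM final concentration range.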

[2] = test system: blood cancer cell lines (e.g. HL-60, Jurkat, Raji, Ramos, Daudi, MOLT-4); assay: Cell based assay, cell viability (CellTiter-Glo), blood cancer cell lines; conditions: Homo sapiens
In short: as §1

brain cancer cell lines = assay: Cell based assay, cell viability (CellTiter-Glo), brain cancer cell lines; conditions: Homo sapiens
melanoma cell lines = assay: Cell based assay, cell viability (CellTiter-Glo), melanoma cell lines; conditions: Homo sapiens; LOX-IMVI cell line
In short: as §1

[3] = A549 cells, read-out: IC50, lung cancer cell line A549
[4] = DMS 114 cells, read-out: IC50, lung cancer cell line DMS 114
[5] = NCI-H23 cells, read-out: IC50, lung cancer cell line NCI-H23
[6] = NCI-H460 cells, read-out: IC50, lung cancer cell line NCI-H460
[7] = NCI-H522 cells, read-out: IC50, lung cancer cell line NCI-H522
[8] = NCI-H1299 cells, read-out: IC50, lung cancer cell line NCI-H1299
[9] = NCI-H1437 cells, read-out: IC50, lung cancer cell line NCI-H1437
[10] = MV4-11, blood cancer cell line MV-4-11, 72 hours, read-out: IC50, MV-4-11
[11] = blood cancer cell line Daudi, 72 hours, read-out: IC50, Daudi
[12] = blood cancer cell line HL-60, 72 hours, read-out: IC50, HL-60
[13] = blood cancer cell line Jurkat, 72 hours, read-out: IC50, Jurkat
[14] = blood cancer cell line MOLT-4, 72 hours, read-out: IC50, MOLT-4
[15] = blood cancer cell line Raji, 72 hours, read-out: IC50, Raji
[16] = blood cancer cell line Ramos (RA 1), 72 hours, read-out: IC50, Ramos (RA 1)
[17] = blood cancer cell line U-937, 72 hours, read-out: IC50, U-937
[18] = U138-MG, U-138 MG cell line, read-out: IC50, Brain cancer cell line U-138 MG
[19] = T98G cell line, read-out: IC50, Brain cancer cell line T98G
[20] = U-251 MG cell line, read-out: IC50, Brain cancer cell line U-251 MG

SMILES	IC50 [1, 3] [µM]	IC50 [1, 4] [µM]	IC50 [1, 5] [µM]	IC50 [1, 6] [µM]	IC50 [1, 7] [µM]	IC50 [1, 8] [µM]	IC50 [1, 9] [µM]	IC50 [2, 10] [µM]	IC50 [2, 11] [µM]	IC50 [2, 12] [µM]	IC50 [2, 13] [µM]	IC50 [2, 14] [µM]	IC50 [2, 15] [µM]	IC50 [2, 16] [µM]	IC50 [2, 17] [µM]	IC50 (brain cancer cell lines; [18]) [µM]	IC50 (brain cancer cell lines; [19]) [µM]	IC50 (brain cancer cell lines; [20]) [µM]	IC50 (melanoma cell lines) [µM]	IC50 ([1]; MRC-5 cells, read-out: IC50) [µM]
CC(=O)c1c([S+]([O-])Cc2cc(Cl)ccc2Cl)[nH]c2c(Br)ccc(Cl)c2c1=O (stereo not drawn) [Compound 44, 3-acetyl-8-bromo-5-chloro-2-((2,5-dichlorobenzyl)sulfinyl)quinolin-4(1H)-one]	1.87	> 2	0.96	1.75	> 2	1.28	> 10	1.98	1.8	1.73	1.13	1.47	1.16	1.93	> 2	> 2	> 10	1.05	1.64	0.96
CC(=O)c1c([S+]([O-])Cc2cccc(F)c2)[nH]c2c(Br)ccc(Cl)c2c1=O (stereo not drawn) [Compound 50, 3-acetyl-8-bromo-5-chloro-2-((3-fluorobenzyl)sulfinyl)quinolin-4(1H)-one]	> 2	> 2	1.14	> 2	> 2	1.94	> 10	> 2	> 2	> 2	1.2	1.66	1.41	> 2	> 2	> 2	> 10	1.28	1.51	> 2
CC(=O)c1c([S+]([O-])Cc2ccc([N+](=O)[O-])cc2)[nH]c2c(Cl)ccc(Cl)c2c1=O (stereo not drawn) [Compound 57, 3-acetyl-5,8-dichloro-2-((4-nitrobenzyl)sulfinyl)quinolin-4(1H)-one]	> 2	> 2	1.83	> 2	> 2	> 2	> 10	> 2	> 2	> 2	> 2	> 2	> 2	> 2	> 2	> 10	> 10	> 2	> 2	> 2
CC(=O)c1c(S(=O)(=O)Cc2ccccc2)[nH]c2c(Br)ccc(Cl)c2c1=O [Compound 34, 3-acetyl-2-(benzylsulfonyl)-8-bromo-5-chloroquinolin-4(1H)-one]	> 2	> 2	1.39	> 2	> 2	2	> 10	> 2	> 2	> 2	> 2	> 2	> 2	> 2	> 2	> 2	> 10	> 2	1.63	> 2
CC(=O)c1c([S+]([O-])Cc2ccc(C(F)(F)F)cc2)[nH]c2c(Br)ccc(Cl)c2c1=O (stereo not drawn) [Compound 70, 3-acetyl-8-bromo-5-chloro-2-((4-(trifluoromethyl)benzyl)sulfinyl)quinolin-4(1H)-one]	1.99	> 2	1.03	1.61	> 2	1.47	> 10	1.52	1.6	> 2	1.09	1.31	1.32	1.9	> 2	1.52	> 10	1.14	1.19	1.01
CC(=O)c1c([S+]([O-])Cc2ccc(OC(F)(F)F)cc2)[nH]c2c(Br)ccc(Cl)c2c1=O (stereo not drawn) [Compound 71, 3-acetyl-8-bromo-5-chloro-2-((4-(trifluoromethoxy)benzyl)sulfinyl)quinolin-4(1H)-one]	1.79	> 2	1.46	> 2	> 2	1.64	> 10	> 2	> 2	> 2	1.25	1.51	1.65	> 2	> 2	> 2	> 10	> 2	1.41	> 2
CC(=O)c1c([S+]([O-])Cc2ccc(SC(F)(F)F)cc2)[nH]c2c(Br)ccc(Cl)c2c1=O (stereo not drawn) [Compound 56, 3-acetyl-8-bromo-5-chloro-2-((4-((trifluoromethyl)thio)benzyl)sulfinyl)quinolin-4(1H)-one]	1.7	> 2	1.04	1.9	> 2	> 2	> 10	1.5	1.25	1.95	1.06	1.66	1.12	1.86	1.75	1.34	> 10	1.17	1.09	1.24
CC(=O)c1c([S+]([O-])Cc2ccc(F)c(Cl)c2)[nH]c2c(Br)ccc(Cl)c2c1=O (stereo not drawn) [Compound 31, 3-acetyl-8-bromo-5-chloro-2-((3-chloro-4-fluorobenzyl)sulfinyl)quinolin-4(1H)-one]	1.72	> 2	0.81	1.42	> 2	1.22	> 10	> 2	1.65	1.93	0.94	1.35	1.1	1.83	> 2	1.79	> 10	1.09	1.11	> 2

Continued, in another order:

IC50 [1, 3] [µM]	IC50 [1, 4] [µM]	IC50 [1, 5] [µM]	IC50 [1, 6] [µM]	IC50 [1, 7] [µM]	IC50 [1, 8] [µM]	IC50 [1, 9] [µM]	IC50 [2, 10] [µM]	IC50 [2, 11] [µM]	IC50 [2, 12] [µM]	IC50 [2, 13] [µM]	IC50 [2, 14] [µM]	IC50 [2, 15] [µM]	IC50 [2, 16] [µM]	IC50 [2, 17] [µM]	IC50 (brain cancer cell lines; [18]) [µM]	IC50 (brain cancer cell lines; [19]) [µM]	IC50 (brain cancer cell lines; [20]) [µM]	IC50 (melanoma cell lines) [µM]	SMILES	IC50 ([1]; MRC-5 cells, read-out: IC50) [µM]
> 2	> 2	1.34	> 2	> 2	1.81	> 10	> 2	> 2	> 2	> 2	> 2	> 2	1.98	> 2	> 2	> 10	> 2	1.37	CC(=O)c1c([S+]([O-])Cc2c(F)c(F)c(F)c(F)c2F)[nH]c2c(Br)ccc(Cl)c2c1=O (stereo not drawn) [Compound 78, 3-acetyl-8-bromo-5-chloro-2-(((perfluorophenyl)methyl)sulfinyl)quinolin-4(1H)-one]	1.5
> 2	> 2	1.47	> 2	> 2	> 2	> 10	1.75	> 2	> 2	1.38	> 2	> 2	1.71	> 2	> 2	> 10	> 2	1.65	COC(=O)c1ccc(C[S+]([O-])c2[nH]c3c(Cl)ccc(Cl)c3c(=O)c2C(C)=O)o1 (stereo not drawn) [Compound 89, methyl 5-(((3-acetyl-5,8-dichloro-4-oxo-1,4-dihydroquinolin-2-yl)sulfinyl)methyl)furan-2-carboxylate]	> 2
> 2	> 2	1.52	> 2	> 2	> 2	> 10	1.31	> 2	1.6	> 2	> 2	> 2	> 2	> 2	> 2	> 10	> 2	1.67	CC(=O)c1c([S+]([O-])Cc2ccc(C#N)cc2)[nH]c2c(Br)ccc(Cl)c2c1=O (stereo not drawn) [Compound 73, 4-(((3-acetyl-8-bromo-5-chloro-4-oxo-1,4-dihydroquinolin-2-yl)sulfinyl)methyl)benzonitrile]	> 2
> 2	> 2	0.86	1.48	1.35	1.05	> 10	0.82	1.12	1.48	0.98	0.97	1.5	1	1.48	> 2	> 10	> 2	1.45	CC(=O)c1c([S+]([O-])Cc2cccnc2)[nH]c2c(Br)ccc(Cl)c2c1=O (stereo not drawn) [Compound 84, 3-acetyl-8-bromo-5-chloro-2-((pyridin-3-ylmethyl)sulfinyl)quinolin-4(1H)-one]	1.29
0.94	> 2	0.72	1.4	1.01	1.06	< 2	0.7	0.64	0.98	0.29	1.01	1	0.52	1.06	1.01	> 10	0.61	0.54	Cc1cc(C[S+]([O-])c2[nH]c3c(Br)ccc(Cl)c3c(=O)c2C(=O)C(C)C)no1 (stereo not drawn) [Compound 95, 8-bromo-5-chloro-3-isobutyryl-2-(((5-methylisoxazol-3-yl)methyl)sulfinyl)quinolin-4(1H)-one]	0.97
1.19	> 2	0.71	1.49	1.09	1.23	< 2	0.71	0.65	1.38	0.55	1.01	0.82	0.46	1.23	1.29	> 10	0.74	0.71	Cc1cc(C[S+]([O-])c2[nH]c3c(Cl)ccc(Cl)c3c(=O)c2C(=O)C(C)C)no1 (stereo not drawn) [Compound 86, 5,8-dichloro-3-isobutyryl-2-(((5-methylisoxazol-3-yl)methyl)sulfinyl)quinolin-4(1H)-one]	1.13
1.7	> 2	1.19	1.73	> 2	1.06	> 10	> 2	1.26	> 2	1.09	1.28	1.16	> 2	> 2	1.37	> 10	1.09	1.04	COc1cc(S(F)(F)(F)(F)F)ccc1C[S+]([O-])c1[nH]c2c(Br)ccc(Cl)c2c(=O)c1C(C)=O (stereo not drawn) [Compound 75, 3-acetyl-8-bromo-5-chloro-2-((2-methoxy-4-(pentafluoro--sulfanyl)benzyl)sulfinyl)quinolin-4(1H)-one]	1.09
